The text below walks through data of ChEMBL document CHEMBL1201862, “PubChem BioAssay data set” (2004).

For one test, the target named is T1, Bcl-2-related protein A1 (Mus musculus, UniProt Q07440).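 Note: confirmatory dose–response counterscreen on Bfl-1, used to check hits from a UBC13 polyubiquitin inhibitor campaign.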
T1 sequence (Q07440 whole entry): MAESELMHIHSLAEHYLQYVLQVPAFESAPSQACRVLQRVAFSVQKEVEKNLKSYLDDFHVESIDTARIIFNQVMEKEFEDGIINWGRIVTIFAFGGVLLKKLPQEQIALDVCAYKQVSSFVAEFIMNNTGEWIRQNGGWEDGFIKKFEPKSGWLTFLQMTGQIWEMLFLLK
The test is classed as functional.

Test [1] deals with T2, Ubiquitin-conjugating enzyme E2 N (Homo sapiens, UniProt P61088).
T2 sequence (P61088 whole entry): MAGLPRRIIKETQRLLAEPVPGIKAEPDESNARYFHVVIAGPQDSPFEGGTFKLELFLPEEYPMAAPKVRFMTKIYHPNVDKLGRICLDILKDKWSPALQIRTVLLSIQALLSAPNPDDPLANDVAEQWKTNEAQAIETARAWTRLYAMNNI
The test is classed as functional.

For test [2], the target named is T2, Ubiquitin-conjugating enzyme E2 N. The test is classed as functional. This is another data set of the same source.
The target in test [3] is T3, Nuclear receptor subfamily 0 group B member 1 (Homo sapiens, UniProt P51843).
T3 sequence (P51843 whole entry): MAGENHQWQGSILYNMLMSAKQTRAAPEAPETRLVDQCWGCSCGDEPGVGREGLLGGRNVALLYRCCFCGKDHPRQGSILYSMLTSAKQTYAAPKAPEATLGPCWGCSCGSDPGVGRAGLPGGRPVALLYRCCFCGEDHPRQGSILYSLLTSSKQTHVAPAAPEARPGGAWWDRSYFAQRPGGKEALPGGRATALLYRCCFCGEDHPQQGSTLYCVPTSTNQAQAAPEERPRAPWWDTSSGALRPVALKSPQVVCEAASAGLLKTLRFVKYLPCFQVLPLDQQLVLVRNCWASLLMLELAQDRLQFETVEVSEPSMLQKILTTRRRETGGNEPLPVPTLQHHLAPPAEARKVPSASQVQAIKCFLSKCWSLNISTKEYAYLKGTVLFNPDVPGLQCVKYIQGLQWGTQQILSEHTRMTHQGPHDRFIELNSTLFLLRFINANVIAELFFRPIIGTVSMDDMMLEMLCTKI
Put plainly: Luminescence-based cell-based high throughput dose response assay for inhibitors of the orphan nuclear receptor subfamily 0, group B, member 1 (DAX1; NR0B1). [Related pubchem assays (depositor defined):AID504766, AID504790]. The test is classed as functional.

The test system of another test is HEK293. As to the kind of experiment: cells. The test is classed as functional, cell-based. Particulars: Homo sapiens.
The target of test [4] is T4, Carboxy-terminal domain RNA polymerase II polypeptide A small phosphatase 1 (Homo sapiens, UniProt Q9GZU7).
T4 sequence (Q9GZU7 whole entry): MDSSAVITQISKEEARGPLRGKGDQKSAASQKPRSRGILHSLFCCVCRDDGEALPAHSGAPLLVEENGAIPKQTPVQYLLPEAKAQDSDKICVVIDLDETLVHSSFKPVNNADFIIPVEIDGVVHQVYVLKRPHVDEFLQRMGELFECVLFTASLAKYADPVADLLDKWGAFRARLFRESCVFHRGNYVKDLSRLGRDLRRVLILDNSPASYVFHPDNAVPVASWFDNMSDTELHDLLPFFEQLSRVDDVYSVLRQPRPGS
As to the kind of experiment: inhibitors of CTDSP1, concentration-response testing, biochemical assay, absorbance-based, actives from ultra-high-throughput screening (AID 540297). The test is classed as functional.

Test [5] in a line: growth suppression of PTEN-null colon cells, dose response, cell-based, HCT116 PTEN knockout (AID 1047).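 Note: HCT116 colon tumor cells with PTEN knocked out; cells exposed to compound for 60 hours before readout; potency for loss of cell viability measured by luminescence.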 The test is classed as functional.
Test [6] in a line: growth suppression of beta-catenin-knockout colon cells, dose response, cell-based, HCT116, human colon tumor (AID 1045).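 Note: HCT116 colon tumor cells with beta catenin knocked out; cells exposed to compound for 60 hours.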 The test is classed as functional.
In test [7] the test system is Vero. As to the kind of experiment: cells. The note with it: Chlorocebus sabaeus. The test is classed as functional, cell-based.
In test [8] the test system is Streptococcus sp. 'group A'. Put plainly: growth inhibition of control SK(-) GAS strain, dose response, counter-screen for streptokinase expression inhibitor project, luminescence, kanamycin, BacTiterGlo, confirmation (AID 1900). The test is classed as functional, organism-based.
Test [9] concerns Vero. Put plainly: cells. The test is classed as functional. The note with it: Chlorocebus sabaeus.
In the next test the test system is Streptococcus. As to the kind of experiment: Group A Streptococcus viability loss, dose response, counter-screen for streptokinase expression inhibitor project, luminescence, BacTiterGlo (AID 1915).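 Note: potency for reduction of bacterial viability or growth.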 The test is classed as functional, organism-based.
Test [10] in a line: THP-1 cell cytotoxicity, dose response, cytotoxicity control for non-replicating M. tuberculosis project (AID 489025). The test is classed as functional.
A short description of test [11]: microbe, parasite or virus in culture. The test is classed as functional. Particulars: Mycobacterium tuberculosis.
The nature of test [12]: Vero E6 cell cytotoxicity, dose response, cytotoxicity control for non-replicating M. tuberculosis project, secondary assay (AID 492998). The test is classed as functional, VeroE6. The note with it: Vero C1008.
A short description of the next test: cells. The test is classed as functional.
The target in test [13] is Peroxisome proliferator-activated receptor gamma/Nuclear receptor coactivator 3 (Homo sapiens, UniProt P37231). Put plainly: TR-FRET dose response biochemical High Throughput Screening assay for agonists of the steroid receptor coactivator 3 (SRC-3) recruitment by the peroxisome proliferator-activated receptor gamma (PPAR gamma): non-selective agonists. [Related pubchem assays: 1301 (Confirmation screen.), 1048 (Primary screen.)]. The test is classed as functional.

In test [14] the target is Peroxisome proliferator-activated receptor gamma/Nuclear receptor coactivator 2 (Homo sapiens, UniProt P37231). Put plainly: TR-FRET dose response biochemical High Throughput Screening assay for agonists of the steroid receptor coactivator 2 (SRC-2) recruitment by the peroxisome proliferator-activated receptor gamma (PPAR gamma): non-selective agonists. [Related pubchem assays: 1297, 1032 ]. The test is classed as functional.

Test [15] addresses Peroxisome proliferator-activated receptor gamma/Nuclear receptor coactivator 1 (Homo sapiens, UniProt P37231). Put plainly: TR-FRET dose response biochemical High Throughput Screening assay for agonists of the steroid receptor coactivator 1 (SRC-1) recruitment by the peroxisome proliferator-activated receptor gamma (PPAR gamma): non-selective agonists. [Related pubchem assays (depositor defined):AID1300, AID1808, AID504735, AID631]. The test is classed as protein assay.

For the next test, the target named is T5, CAAX prenyl protease 1 (Saccharomyces cerevisiae S288c, UniProt P47154).
T5 sequence (P47154 whole entry): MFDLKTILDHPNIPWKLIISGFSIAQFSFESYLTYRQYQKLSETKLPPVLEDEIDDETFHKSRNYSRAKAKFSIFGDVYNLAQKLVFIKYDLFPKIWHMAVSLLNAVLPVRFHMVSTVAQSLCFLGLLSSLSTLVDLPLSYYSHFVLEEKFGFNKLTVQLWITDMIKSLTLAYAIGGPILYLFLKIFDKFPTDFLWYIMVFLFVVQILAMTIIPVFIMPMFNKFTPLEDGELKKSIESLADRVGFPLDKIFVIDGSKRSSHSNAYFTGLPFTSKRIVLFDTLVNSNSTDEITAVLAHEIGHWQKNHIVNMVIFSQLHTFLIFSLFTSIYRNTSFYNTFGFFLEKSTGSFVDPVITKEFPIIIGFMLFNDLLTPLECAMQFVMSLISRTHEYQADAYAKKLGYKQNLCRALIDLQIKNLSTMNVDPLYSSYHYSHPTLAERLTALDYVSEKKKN
Put plainly: Ste24 protease inhibitors, dose response, biochemical, S. cerevisiae, plate reader, cherry-pick (AID 488815).

The target in the next test is T6, CAAX prenyl protease 2 (Homo sapiens, UniProt Q9Y256).
T6 sequence (Q9Y256 whole entry): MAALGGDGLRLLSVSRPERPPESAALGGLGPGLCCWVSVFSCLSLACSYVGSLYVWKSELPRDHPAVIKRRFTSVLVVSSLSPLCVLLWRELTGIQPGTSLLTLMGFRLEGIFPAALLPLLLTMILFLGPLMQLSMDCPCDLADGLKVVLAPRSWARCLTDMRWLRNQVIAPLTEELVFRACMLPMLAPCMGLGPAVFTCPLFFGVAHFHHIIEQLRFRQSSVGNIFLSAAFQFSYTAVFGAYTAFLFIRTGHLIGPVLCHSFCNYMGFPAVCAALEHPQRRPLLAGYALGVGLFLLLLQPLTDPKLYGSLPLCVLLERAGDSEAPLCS
Put plainly: human Rce1 protease inhibitors, dose response, biochemical, yeast membranes, quenched-peptide fluorescence, cherry-pick (AID 588849).

Test [16] addresses Voltage-gated inwardly rectifying potassium channel KCNH2 (Homo sapiens, UniProt Q12809). Particulars: Potency.
In a further test the target is Fatty acid synthase (Homo sapiens, UniProt P49327). Put plainly: FAS thioesterase domain inhibitors, dose response, biochemical, kinetic fluorescence intensity (AID 624326).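 Note: rate of fluorescence rise from hydrolysis of a fluorogenic O-methyl fluorescein ester substrate.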 The test is classed as functional.
The next test has as its system H9c2. As to the kind of experiment: cells. The test is classed as functional, cell-based. Particulars: Rattus norvegicus, H9c2, Myocardium.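 Note: confirmatory concentration-response retest of ultra-high-throughput screening hits for modulation of myocardial damage; cell death induced by hydrogen peroxide oxidative stress; compound pretreatment for 60 min then peroxide exposure for 2 h; potency is for protecting the cells against peroxide damage rather than for killing them.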

Where a name gives a salt, the structure may show the parent alone. Active and inactive are the calls of the source. Some results are limits rather than exact numbers.

Sequence of Peroxisome proliferator-activated receptor gamma/Nuclear receptor coactivator 1 (P37231 whole entry): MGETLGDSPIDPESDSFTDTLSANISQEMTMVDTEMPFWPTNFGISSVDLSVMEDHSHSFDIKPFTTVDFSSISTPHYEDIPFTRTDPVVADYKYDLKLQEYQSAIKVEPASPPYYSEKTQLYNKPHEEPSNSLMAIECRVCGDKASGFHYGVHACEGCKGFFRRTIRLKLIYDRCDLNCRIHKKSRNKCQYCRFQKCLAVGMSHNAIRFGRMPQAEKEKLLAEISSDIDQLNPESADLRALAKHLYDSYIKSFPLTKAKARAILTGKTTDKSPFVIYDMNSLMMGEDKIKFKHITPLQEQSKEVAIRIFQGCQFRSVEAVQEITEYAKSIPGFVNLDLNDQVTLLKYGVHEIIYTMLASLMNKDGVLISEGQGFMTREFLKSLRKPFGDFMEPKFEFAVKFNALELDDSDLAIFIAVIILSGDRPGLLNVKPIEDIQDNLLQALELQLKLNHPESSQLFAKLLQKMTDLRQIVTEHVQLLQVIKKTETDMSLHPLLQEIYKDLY
Sequence of Peroxisome proliferator-activated receptor gamma/Nuclear receptor coactivator 1 (Q15788 whole entry, further chain): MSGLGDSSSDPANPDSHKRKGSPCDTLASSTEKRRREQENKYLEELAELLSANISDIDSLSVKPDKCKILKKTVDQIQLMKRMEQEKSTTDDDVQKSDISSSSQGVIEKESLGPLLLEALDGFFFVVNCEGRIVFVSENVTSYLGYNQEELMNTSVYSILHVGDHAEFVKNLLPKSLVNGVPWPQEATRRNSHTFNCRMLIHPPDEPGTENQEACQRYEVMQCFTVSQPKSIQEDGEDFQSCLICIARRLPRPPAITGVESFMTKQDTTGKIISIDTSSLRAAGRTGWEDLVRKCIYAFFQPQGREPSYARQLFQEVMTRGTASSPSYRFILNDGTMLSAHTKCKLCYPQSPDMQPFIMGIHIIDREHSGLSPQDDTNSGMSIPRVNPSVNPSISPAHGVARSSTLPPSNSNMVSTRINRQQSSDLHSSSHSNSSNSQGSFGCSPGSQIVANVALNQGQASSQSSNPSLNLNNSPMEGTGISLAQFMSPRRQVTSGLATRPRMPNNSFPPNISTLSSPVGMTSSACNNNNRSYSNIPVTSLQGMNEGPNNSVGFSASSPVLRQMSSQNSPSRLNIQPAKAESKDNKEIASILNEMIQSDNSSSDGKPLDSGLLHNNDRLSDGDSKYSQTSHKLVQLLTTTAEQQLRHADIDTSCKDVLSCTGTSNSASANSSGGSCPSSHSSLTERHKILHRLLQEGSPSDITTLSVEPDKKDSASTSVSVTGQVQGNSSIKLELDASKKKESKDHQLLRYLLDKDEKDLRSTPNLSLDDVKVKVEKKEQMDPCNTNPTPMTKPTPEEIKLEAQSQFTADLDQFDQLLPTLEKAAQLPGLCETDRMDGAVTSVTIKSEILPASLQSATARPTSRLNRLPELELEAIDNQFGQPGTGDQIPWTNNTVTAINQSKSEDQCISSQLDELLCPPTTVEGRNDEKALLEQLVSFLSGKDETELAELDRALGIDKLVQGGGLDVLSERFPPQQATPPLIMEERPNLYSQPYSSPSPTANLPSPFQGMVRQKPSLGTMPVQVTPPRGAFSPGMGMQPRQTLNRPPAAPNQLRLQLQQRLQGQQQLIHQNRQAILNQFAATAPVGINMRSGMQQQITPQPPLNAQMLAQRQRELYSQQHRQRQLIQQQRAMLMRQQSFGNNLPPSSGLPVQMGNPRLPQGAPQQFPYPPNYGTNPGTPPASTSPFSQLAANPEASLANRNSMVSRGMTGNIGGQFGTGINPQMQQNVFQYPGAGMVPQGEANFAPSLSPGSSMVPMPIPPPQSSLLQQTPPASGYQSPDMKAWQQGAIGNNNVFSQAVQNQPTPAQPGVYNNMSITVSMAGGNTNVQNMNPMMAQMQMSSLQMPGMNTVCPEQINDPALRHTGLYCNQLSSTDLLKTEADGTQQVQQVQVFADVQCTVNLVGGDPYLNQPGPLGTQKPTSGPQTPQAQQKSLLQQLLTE
Sequence of Peroxisome proliferator-activated receptor gamma/Nuclear receptor coactivator 3 (P37231 whole entry): as the sequence (P37231 whole entry) above
Sequence of Peroxisome proliferator-activated receptor gamma/Nuclear receptor coactivator 3 (Q9Y6Q9 whole entry, further chain): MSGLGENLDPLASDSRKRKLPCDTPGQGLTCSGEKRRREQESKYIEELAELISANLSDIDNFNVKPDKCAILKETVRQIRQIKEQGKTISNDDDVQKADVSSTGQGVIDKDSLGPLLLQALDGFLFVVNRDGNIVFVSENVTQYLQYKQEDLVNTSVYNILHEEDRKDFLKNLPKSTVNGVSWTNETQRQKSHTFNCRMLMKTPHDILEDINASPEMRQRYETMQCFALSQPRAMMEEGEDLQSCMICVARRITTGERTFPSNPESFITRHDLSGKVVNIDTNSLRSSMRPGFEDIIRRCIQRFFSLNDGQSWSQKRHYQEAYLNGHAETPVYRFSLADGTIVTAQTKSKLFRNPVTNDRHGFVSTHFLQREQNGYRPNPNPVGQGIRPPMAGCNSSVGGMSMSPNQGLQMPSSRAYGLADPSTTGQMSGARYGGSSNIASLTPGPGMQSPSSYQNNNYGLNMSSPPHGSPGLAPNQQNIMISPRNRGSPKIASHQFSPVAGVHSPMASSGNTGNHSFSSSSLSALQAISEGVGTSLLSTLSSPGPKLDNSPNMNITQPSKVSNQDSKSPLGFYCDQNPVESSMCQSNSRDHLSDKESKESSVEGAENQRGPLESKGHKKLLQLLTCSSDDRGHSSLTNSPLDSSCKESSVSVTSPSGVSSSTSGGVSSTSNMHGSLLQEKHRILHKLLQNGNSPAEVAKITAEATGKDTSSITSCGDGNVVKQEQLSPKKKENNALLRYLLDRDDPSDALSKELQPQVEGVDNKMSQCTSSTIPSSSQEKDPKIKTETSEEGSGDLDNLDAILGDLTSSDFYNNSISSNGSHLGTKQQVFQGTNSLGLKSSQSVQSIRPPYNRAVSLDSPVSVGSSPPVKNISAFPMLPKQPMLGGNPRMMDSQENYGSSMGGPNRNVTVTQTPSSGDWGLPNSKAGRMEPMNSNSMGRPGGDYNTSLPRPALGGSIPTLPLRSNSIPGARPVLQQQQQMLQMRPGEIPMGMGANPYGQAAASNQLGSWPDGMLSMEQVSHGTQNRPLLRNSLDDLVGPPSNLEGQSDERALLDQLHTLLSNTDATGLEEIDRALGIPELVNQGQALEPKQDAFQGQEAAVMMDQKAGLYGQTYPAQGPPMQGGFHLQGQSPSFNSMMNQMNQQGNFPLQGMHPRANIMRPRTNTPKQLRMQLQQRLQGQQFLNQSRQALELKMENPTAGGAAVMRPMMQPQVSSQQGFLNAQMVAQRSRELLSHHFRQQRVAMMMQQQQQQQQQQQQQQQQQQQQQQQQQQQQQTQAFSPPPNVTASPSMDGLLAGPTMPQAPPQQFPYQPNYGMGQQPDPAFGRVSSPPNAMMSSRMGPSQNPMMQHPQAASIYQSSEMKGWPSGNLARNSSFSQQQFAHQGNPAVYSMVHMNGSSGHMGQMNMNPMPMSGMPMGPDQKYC
Sequence of Voltage-gated inwardly rectifying potassium channel KCNH2 (Q12809 whole entry, the tested form may be a part): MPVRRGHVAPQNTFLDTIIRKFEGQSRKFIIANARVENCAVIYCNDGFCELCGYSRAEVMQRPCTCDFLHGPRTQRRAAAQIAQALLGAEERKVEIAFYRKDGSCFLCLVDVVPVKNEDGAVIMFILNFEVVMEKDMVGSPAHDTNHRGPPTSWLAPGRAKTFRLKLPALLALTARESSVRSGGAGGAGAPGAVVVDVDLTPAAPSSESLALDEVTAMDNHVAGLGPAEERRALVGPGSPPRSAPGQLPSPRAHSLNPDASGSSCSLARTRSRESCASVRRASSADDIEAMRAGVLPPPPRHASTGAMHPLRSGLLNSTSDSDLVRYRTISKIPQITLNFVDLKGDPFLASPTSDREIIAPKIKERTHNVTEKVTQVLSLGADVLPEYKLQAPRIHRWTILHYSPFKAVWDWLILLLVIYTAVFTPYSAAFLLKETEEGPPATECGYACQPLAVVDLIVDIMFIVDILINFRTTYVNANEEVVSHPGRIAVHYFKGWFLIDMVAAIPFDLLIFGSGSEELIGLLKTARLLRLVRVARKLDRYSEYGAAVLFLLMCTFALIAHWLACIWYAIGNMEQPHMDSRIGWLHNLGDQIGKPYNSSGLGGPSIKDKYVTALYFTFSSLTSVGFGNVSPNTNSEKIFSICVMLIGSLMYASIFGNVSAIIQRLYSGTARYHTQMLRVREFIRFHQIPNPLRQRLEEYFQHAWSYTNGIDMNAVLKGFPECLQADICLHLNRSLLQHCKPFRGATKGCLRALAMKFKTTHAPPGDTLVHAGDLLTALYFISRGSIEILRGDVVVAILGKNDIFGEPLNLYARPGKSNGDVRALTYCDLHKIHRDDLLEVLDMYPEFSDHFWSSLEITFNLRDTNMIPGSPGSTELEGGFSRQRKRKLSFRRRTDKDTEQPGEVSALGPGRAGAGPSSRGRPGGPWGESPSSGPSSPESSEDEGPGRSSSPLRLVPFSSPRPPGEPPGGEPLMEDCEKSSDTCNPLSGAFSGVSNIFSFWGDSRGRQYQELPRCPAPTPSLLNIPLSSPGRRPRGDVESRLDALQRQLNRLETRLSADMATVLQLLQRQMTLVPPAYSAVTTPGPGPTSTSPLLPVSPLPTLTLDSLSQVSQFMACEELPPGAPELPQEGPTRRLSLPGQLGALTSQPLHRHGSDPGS

For the compound `COC(=O)c1ccc(Cn2c(O)c(/N=N/C(=N)S)c3ccccc32)o1`, the figures for the IC50 (at Bcl-2-related protein A1; in test [1]; in test [2]) were > 20 µM (inactive), 14.1 µM (active) and > 20 µM (inactive), respectively.

`O=C(Nc1nc2ccsc2c(=O)s1)c1ccc(F)cc1Cl`: the IC50 is > 67.5 µM (inactive) in test [3], > 67.5 µM (inactive) in the test on HEK293 and 31.7 µM (active) in [4].

On to `CCOc1ccccc1NC(=O)C(OC(=O)c1ccc(O)cc1)c1ccccc1` (stereo not given), for which the values for the EC50 in test [5] and in test [6] were 729 µM (active) and 680 µM (active), respectively. The IC50 at Bcl-2-related protein A1 is > 20 µM (inactive); in [1], 15.2 µM (active); in [2], > 20 µM (inactive).

With `COc1cccc(-c2ccc(NC(=O)C3CCCN(Cc4cnn(C)c4)C3)cc2)c1` (stereo not given), the IC50 with Vero [7] was 21.9 µM (active).

On to `O=C(COc1ccc(Cl)cc1Cl)OCC(=O)N1CCCc2ccccc21`, for which the IC50 (in test [3]; with HEK293) was > 67.5 µM (inactive) each time.

Consider `O=C(NNC(=O)c1nn(-c2ccc(F)cc2)ccc1=O)c1ccccc1Cl`, for which the IC50 at Bcl-2-related protein A1 was > 20 µM (inactive); in test [1], 9.9 µM (active); in test [2], 4.29 µM (active).

On to `CC(Oc1ccc2ccccc2c1)C(=O)NNC(=S)NC(=O)c1ccco1` (stereo not given), for which the EC50 is 0.074 µM (active) in test [8] and 0.432 µM (active) with Streptococcus. In addition, the results for the IC50 in the test with Vero [7] and in the test “cells” were 24.6 µM (active) and 6.03 µM (active), respectively. In addition, the CC50 is > 25 µM (active) with Vero [9], 27.3 µM (active) in [10], 39.5 µM (active) in test [11] and > 20 µM (active) in test [12].

For `CCOC(=O)N1CCC(NC(=O)CSc2cc(=O)n(CC)c3ccccc23)CC1`, the EC50 in [13] is > 79.4 µM (not active); in test [14], > 79.4 µM (not active); in test [15], > 79.4 µM (inactive).

Take `COc1ccc(Cn2c(N)c(S(=O)(=O)c3cccs3)c3nc4ccccc4nc32)cc1`: the AC50 on CAAX prenyl protease 1 is 2.79 µM (active); on CAAX prenyl protease 2, 4.33 µM (active).

Take `COc1cc2c(cc1OC)-c1c/c(=N\c3c(C)cc(C)cc3C)n(C)c(=O)n1CC2` [TREQUINSIN HYDROCHLORIDE]: in test [16], the AC50 was 35.5 µM (inconclusive).

On to `Cc1ccc(C)c(N2CCN(c3ncnc4c3cnn4-c3ccccc3)CC2)c1`, for which the IC50 with Vero [7] is > 25 µM (active). In addition, the CC50 with Vero [9] was > 25 µM (active).

Consider `CC(C)(CO)Cc1cc(C(C)(C)C)c(O)c(C(C)(C)C)c1`, for which the half-maximal activity concentration (AC50) in [16] is 35.5 µM (inconclusive).

On to `CCOC(=O)C1CCN(C(=O)CSc2c3c(nc4ccccc24)CCC3)CC1`, for which the EC50 was > 79.4 µM (not active) in test [13], > 79.4 µM (not active) in [14] and > 79.4 µM (inactive) in test [15].

Consider `COC(=O)[C@H](NC(=O)c1cc(-c2ccccc2)nc2ccccc12)c1ccccc1`, for which the AC50 in [16] is 0.794 µM (inconclusive).

Turning to `O=C(O)CC(NNC(=O)c1ccccc1)C(=O)Nc1ccc([N+](=O)[O-])cc1` (stereo not given), the IC50 (in test [3]; with HEK293) was > 67.5 µM (inactive) each time.

As to `O=C(Nc1nc(-c2ccc(S(=O)(=O)N3CCCC3)cc2)cs1)C1COc2ccccc2O1` (stereo not given), the half-maximal inhibitory concentration (IC50) at Fatty acid synthase was 1.28 µM (active); with H9c2 it was > 79 µM (inactive). The EC50 in test [13] is > 79.4 µM (not active); in test [14] it was 27.7 µM (not active); in [15], 31 µM (inactive).
